Results from US20230027075A1, “SULFONAMIDE COMPOUNDS TARGETING CD73 AND ADENOSINE RECEPTORS” (Aurigene Discovery Technologies Limited, priority 2019, published 2023).
Where a name gives a salt, the structure may show the parent alone.

Columns and labels:
A2aR = molecular target: T1, A2aR (Homo sapiens, UniProt P29274); assay: A2aR biochemical assay (TR-FRET binding, Tag-lite A2aR labelled cells, fluorescent antagonist); conditions: 10 nM fluorescent A2aR antagonist; for inhibition at 20 µM: 20 μM compound, vs DMSO control, read-out: % inhibition at 20 μM (Percent inhibition data in A2aR); for IC50: four-parameter curve fit, read-out: Potency (IC50 values) of selected compounds in A2aR, group
T1 construct: expressed in transfected cells
Experimental: The compounds of present invention were assayed for A2aR enzyme binding activity in a TR-FRET based method. Typically, 10 μL of A2aR labelled cells in assay buffer (Tag-lite, 1×) is added to a 384-well plate containing 5 μL of a compound of present invention in final 1% DMSO, serially diluted in 1:5 in a 5-6 point titration. The aforesaid compound and cells are incubated for 30 minutes at room temperature. Next, 5 μL of A2aR antagonist (fluorescent ligand) in assay buffer is added to the plate. The final concentration of A2aR antagonist is 10 nM. Following 30 minutes reaction at room temperature, the plate was read on a plate reader (Ex: 340 nm Em: 615 nm and 665 nm) to measure the binding of test compound to A2aR cells. The results are interpreted as percentage inhibition as presented in Table-2A of binding by the test compound with respect to the DMSO control.

[1] = molecular target: T2, human-CD73 (Trp27-Lys547, His-tag) (Homo sapiens, UniProt P21589); assay: CD73 biochemical assay (colorimetric, Malachite Green phosphate detection); conditions: 2 nM CD73, 50 μM AMP; for inhibition at 20 µM: read-out: % inhibition at 20 μM (Percent inhibition data in CD73); for IC50: four-parameter curve fit, read-out: Potency (IC50 values) of selected compounds in CD73, group
T2 construct: human-CD73 (Trp27-Lys547, His-tag); His-tag
T2 sequence (P21589 27-547): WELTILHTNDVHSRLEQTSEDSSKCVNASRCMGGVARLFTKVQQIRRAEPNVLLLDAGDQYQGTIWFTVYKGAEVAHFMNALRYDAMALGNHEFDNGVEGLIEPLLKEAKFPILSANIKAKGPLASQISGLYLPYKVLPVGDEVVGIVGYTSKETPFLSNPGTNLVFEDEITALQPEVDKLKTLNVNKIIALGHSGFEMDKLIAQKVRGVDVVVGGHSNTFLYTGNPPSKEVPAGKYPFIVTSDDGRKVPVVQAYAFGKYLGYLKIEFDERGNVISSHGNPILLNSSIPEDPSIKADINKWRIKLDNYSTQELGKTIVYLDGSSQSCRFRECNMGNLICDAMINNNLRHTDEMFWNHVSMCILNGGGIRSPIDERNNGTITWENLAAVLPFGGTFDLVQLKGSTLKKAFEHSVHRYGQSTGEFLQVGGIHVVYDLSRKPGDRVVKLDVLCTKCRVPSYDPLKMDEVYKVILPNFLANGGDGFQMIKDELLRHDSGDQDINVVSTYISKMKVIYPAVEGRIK
Experimental: A colorimetric-based method was used for assaying compounds of the invention for CD73 enzyme inhibitory activity. Human CD73 catalyzes the conversion of AMP to adenosine with the release of orthophosphate. A Malachite Green Phosphate Detection kit is used to measure the formation of orthophosphate product. […] A compound of the present invention and enzyme are incubated for 30 minutes at room temperature. Next, 20 μL of AMP in assay buffer is added to the plate. The final concentration of CD73 and AMP are 2 nM and 50 μM respectively. Following 30 minutes reaction at room temperature, 20 μL of Malachite reagent is added to all the reaction wells. The formation of green complex formed between Malachite Green, molybdate and free orthophosphate is measured on a plate reader (620 nm).

T1 sequence (P29274 whole entry): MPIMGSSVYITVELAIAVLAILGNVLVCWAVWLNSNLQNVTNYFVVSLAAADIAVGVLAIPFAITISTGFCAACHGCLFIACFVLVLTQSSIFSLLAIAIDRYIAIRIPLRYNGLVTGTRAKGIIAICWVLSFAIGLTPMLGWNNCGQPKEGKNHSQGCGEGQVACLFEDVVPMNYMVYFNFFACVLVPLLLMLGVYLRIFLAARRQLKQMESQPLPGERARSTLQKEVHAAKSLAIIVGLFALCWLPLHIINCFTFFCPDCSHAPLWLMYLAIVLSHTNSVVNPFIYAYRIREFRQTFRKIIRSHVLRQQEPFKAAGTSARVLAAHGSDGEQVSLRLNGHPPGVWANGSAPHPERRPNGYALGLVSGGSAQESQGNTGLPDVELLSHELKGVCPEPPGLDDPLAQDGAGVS

An inhibition at 20 µM (A2aR) of 83% and an inhibition at 20 µM ([1]; 20 μM compound) of 63% were found for `COc1c(Cl)cc(S(=O)(=O)Nc2ccc(CCCNc3nc(N)n4nc(-c5ccco5)nc4n3)cc2)cc1C(N)=O` [Example A16, 5-(N-(4-(3-((7-amino-2-(furan-2-yl)-[1,2,4]triazolo[1,5-a][1,3,5]triazin-5-yl)amino)propyl)phenyl)sulfamoyl)-3-chloro-2-methoxybenzamide] in this work.

An inhibition at 20 µM (A2aR) of 88% and an inhibition at 20 µM ([1]; 20 μM compound) of 17% were found for `Nc1nc(NCCc2ccc(NS(=O)(=O)c3ccc(O)c(C(F)(F)F)c3)cc2)nc2nc(-c3ccco3)nn12` [Example A10, N-(4-(2-((7-amino-2-(furan-2-yl)-[1,2,4]triazolo[1,5-a][1,3,5]triazin-5-yl)amino)ethyl)phenyl)-4-hydroxy-3-(trifluoromethyl)benzenesulfonamide] in this work.

An inhibition at 20 µM (A2aR) of 83%, an inhibition at 20 µM ([1]; 20 μM compound) of 96% and an IC50 [1] of 0.11 to 1 µM were found for `NC(=O)c1cc(S(=O)(=O)Nc2ccc(CCCNc3nc(N)n4nc(-c5ccco5)nc4n3)cc2F)cc(Cl)c1O` [Example A15, 5-(N-(4-(3-((7-amino-2-(furan-2-yl)-[1,2,4]triazolo[1,5-a][1,3,5]triazin-5-yl)amino)propyl)-2-fluorophenyl)sulfamoyl)-3-chloro-2-hydroxybenzamide] in this work.

An inhibition at 20 µM (A2aR) of 81%, an inhibition at 20 µM ([1]; 20 μM compound) of 95% and an IC50 [1] of less than 0.1 µM were found for `NC(=O)c1cc(S(=O)(=O)Nc2ccc(CCCNc3cc(N)n4nc(-c5ccco5)nc4n3)c(F)c2)cc(Cl)c1O` [Example A22, 5-(N-(4-(3-((7-amino-2-(furan-2-yl)-[1,2,4]triazolo[1,5-a]pyrimidin-5-yl)amino)propyl)-3-fluorophenyl)sulfamoyl)-3-chloro-2-hydroxybenzamide] in this work.

An inhibition at 20 µM (A2aR) of 72%, an IC50 (A2aR) greater than 0.05 µM and an inhibition at 20 µM ([1]; 20 μM compound) of 99% were found for `NC(=O)c1cc(S(=O)(=O)Nc2ccc(CCCOc3nc(N)n4nc(-c5ccco5)nc4n3)cc2)cc(Cl)c1O` [Example A12, 5-(N-(4-(3-((7-amino-2-(furan-2-yl)-[1,2,4]triazolo[1,5-a][1,3,5]triazin-5-yl)oxy)propyl)phenyl)sulfamoyl)-3-chloro-2-hydroxybenzamide] in this work. The IC50 [1] was less than 0.1 µM.

For `NC(=O)c1cc(S(=O)(=O)Nc2ccc(CCCNc3nc(N)n4nc(-c5ccco5)nc4n3)cc2)cc(Cl)c1O` [Example A26, 5-(N-(4-(3-((7-amino-2-(furan-2-yl)-[1,2,4]triazolo[1,5-a][1,3,5]triazin-5-yl)amino)propyl)phenyl)sulfamoyl)-3-chloro-2-hydroxybenzamide sodium salt], the inhibition at 20 µM (A2aR) was 80% and the “% inhibition at 20 μM (Percent inhibition data in CD73)” value ([1]; 20 μM compound, sodium salt) was 96%.

An inhibition at 20 µM (A2aR) of 84%, an IC50 (A2aR) of less than 0.025 µM and an inhibition at 20 µM ([1]; 20 μM compound) of 99% were found for `NC(=O)c1cc(S(=O)(=O)Nc2ccc(CCNc3nc(N)n4nc(-c5ccco5)nc4n3)c(O)c2)cc(Cl)c1O` [Example A5, 5-(N-(4-(2-((7-amino-2-(furan-2-yl)-[1,2,4]triazolo[1,5-a][1,3,5]triazin-5-yl)amino)ethyl)-3-hydroxyphenyl)sulfamoyl)-3-chloro-2-hydroxybenzamide] in this work. It also gave an IC50 [1] of 0.11 to 1 µM.

An inhibition at 20 µM (A2aR) of 81% and an inhibition at 20 µM ([1]; 20 μM compound) of 70% were found for `CC(=O)Nc1nc(NCCc2ccc(NS(=O)(=O)c3cc(Cl)c(O)c(C(N)=O)c3)cc2)nc2nc(-c3ccco3)nn12` [Example A8, 5-(N-(4-(2-((7-acetamido-2-(furan-2-yl)-[1,2,4]triazolo[1,5-a][1,3,5]triazin-5-yl)amino)ethyl)phenyl)sulfamoyl)-3-chloro-2-hydroxybenzamide] in this work.

An inhibition at 20 µM (A2aR) of 81%, an IC50 (A2aR) of less than 0.025 µM and an inhibition at 20 µM ([1]; 20 μM compound) of 100% were found for `NC(=O)c1cc(S(=O)(=O)Nc2ccc(NCCNc3nc(N)n4nc(-c5ccco5)nc4n3)cc2)cc(Cl)c1O` [Example C1, 5-(N-(4-((2-((7-amino-2-(furan-2-yl)-[1,2,4]triazolo[1,5-a][1,3,5]triazin-5-yl)amino)ethyl)amino)phenyl)sulfamoyl)-3-chloro-2-hydroxybenzamide] in this work. For the same molecule, the IC50 [1] was 0.11 to 1 µM.

An inhibition at 20 µM (A2aR) of 80%, an IC50 (A2aR) greater than 0.05 µM and an inhibition at 20 µM ([1]; 20 μM compound) of 97% were found for `NC(=O)c1cc(S(=O)(=O)Nc2ccc(CNc3nc(N)n4nc(-c5ccco5)nc4n3)cc2)cc(Cl)c1O` [Example A2, 5-(N-(4-(((7-amino-2-(furan-2-yl)-[1,2,4]triazolo[1,5-a][1,3,5]triazin-5-yl)amino)methyl)phenyl)sulfamoyl)-3-chloro-2-hydroxybenzamide] in this work. It also gave an IC50 [1] of 0.11 to 1 µM.

An inhibition at 20 µM (A2aR) of 83%, an IC50 (A2aR) of less than 0.025 µM and an inhibition at 20 µM ([1]; 20 μM compound) of 96% were found for `NC(=O)c1cc(S(=O)(=O)Nc2ccc(CCNc3nc(N)n4nc(-c5ccco5)nc4n3)cc2)cc(Cl)c1O` [Example A3, 5-(N-(4-(2-((7-amino-2-(furan-2-yl)-[1,2,4]triazolo[1,5-a][1,3,5]triazin-5-yl)amino)ethyl)phenyl)sulfamoyl)-3-chloro-2-hydroxybenzamide] in this work. The IC50 [1] was 0.11 to 1 µM.

An inhibition at 20 µM (A2aR) of 82%, an inhibition at 20 µM ([1]; 20 μM compound) of 95% and an IC50 [1] of 0.11 to 1 µM were found for `CN(CCCc1ccc(NS(=O)(=O)c2cc(Cl)c(O)c(C(N)=O)c2)cc1)c1nc(N)n2nc(-c3ccco3)nc2n1` [Example A17, 5-(N-(4-(3-((7-amino-2-(furan-2-yl)-[1,2,4]triazolo[1,5-a][1,3,5]triazin-5-yl)(methyl)amino)propyl)phenyl)sulfamoyl)-3-chloro-2-hydroxybenzamide] in this work.

An inhibition at 20 µM (A2aR) of 82%, an inhibition at 20 µM ([1]; 20 μM compound) of 94% and an IC50 [1] of less than 0.1 µM were found for `NC(=O)c1cc(S(=O)(=O)Nc2ccc(CCCNc3nc(N)n4nc(-c5ccco5)nc4n3)c(F)c2)cc(Cl)c1O` [Example A14, 5-(N-(4-(3-((7-amino-2-(furan-2-yl)-[1,2,4]triazolo[1,5-a][1,3,5]triazin-5-yl)amino)propyl)-3-fluorophenyl)sulfamoyl)-3-chloro-2-hydroxybenzamide] in this work.

An inhibition at 20 µM (A2aR) of 84% and an inhibition at 20 µM ([1]; 20 μM compound) of 42% were found for `NC(=O)c1cc(S(=O)(=O)Nc2ccc(CCNc3nc(N)n4nc(-c5ccco5)nc4n3)cc2F)cc(Cl)c1O` [Example A7, 5-(N-(4-(3-((7-amino-2-(furan-2-yl)-[1,2,4]triazolo[1,5-a][1,3,5]triazin-5-yl)amino)ethyl)-2-fluorophenyl)sulfamoyl)-3-chloro-2-hydroxybenzamide] in this work.

An inhibition at 20 µM (A2aR) of 79%, an inhibition at 20 µM ([1]; 20 μM compound) of 98% and an IC50 [1] of 0.11 to 1 µM were found for `NC(=O)c1cc(S(=O)(=O)Nc2ccc(CCNc3nc(N)n4nc(-c5ccco5)nc4n3)c(F)c2)cc(Cl)c1O` [Example A6, 5-(N-(4-(2-((7-amino-2-(furan-2-yl)-[1,2,4]triazolo[1,5-a][1,3,5]triazin-5-yl)amino)ethyl)-3-fluorophenyl)sulfamoyl)-3-chloro-2-hydroxybenzamide] in this work.

An inhibition at 20 µM (A2aR) of 85%, an inhibition at 20 µM ([1]; 20 μM compound) of 49% and an IC50 [1] of 0.11 to 1 µM were found for `NC(=O)c1cc(S(=O)(=O)Nc2ccc3ccn(CCNc4nc(N)n5nc(-c6ccco6)nc5n4)c3c2)cc(Cl)c1O` [Example D1, 5-(N-(1-(2-((7-amino-2-(furan-2-yl)-[1,2,4]triazolo[1,5-a][1,3,5]triazin-5-yl)amino)ethyl)-1H-indol-6-yl)sulfamoyl)-3-chloro-2-hydroxybenzamide] in this work.

An inhibition at 20 µM (A2aR) of 86% and an inhibition at 20 µM ([1]; 20 μM compound) of 99% were found for `Nc1nc(NCCCc2ccc(NS(=O)(=O)c3cc(Cl)c4oc(=O)[nH]c(=O)c4c3)cc2)nc2nc(-c3ccco3)nn12` [Example B4, N-(4-(3-((7-amino-2-(furan-2-yl)-[1,2,4]triazolo[1,5-a][1,3,5]triazin-5-yl)amino)propyl)phenyl)-8-chloro-2,4-dioxo-3,4-dihydro-2H-benzo[e][1,3]oxazine-6-sulfonamide] in this work.

An inhibition at 20 µM (A2aR) of 85%, an inhibition at 20 µM ([1]; 20 μM compound) of 94% and an IC50 [1] of 0.11 to 1 µM were found for `NC(=O)c1cc(S(=O)(=O)Nc2ccc(CCNc3cc(N)n4nc(-c5ccco5)nc4n3)nc2)cc(Cl)c1O` [Example E2, 5-(N-(6-(2-((7-amino-2-(furan-2-yl)-[1,2,4]triazolo[1,5-a]pyrimidin-5-yl)amino)ethyl)pyridin-3-yl)sulfamoyl)-3-chloro-2-hydroxybenzamide] in this work.
